# Measured values published in patent US20110251213A1, “Cosmetic Use of 1-Aroyl-N-(2-oxo-3-piperidinyl)-2-Piperazine Carbomamides and Related Compounds” (Avon Products, Inc., priority 2008, published 2011).
# Where two headings read alike, the source gives them in different places.
# Assays:
# Desmoglein 1 = details: keratinocytes
# Method: Normal human keratinocytes were cultured in 96 well tissue culture treated plates in Epilife medium with growth supplements (Cascade Biologics Inc.). Cells were treated with test material or a dimethylsulfoxide vehicle control diluted in growth medium for 24 hours in a humidified 37° C. incubator with 10% CO2. After incubation, growth medium from each plate was removed and 100 μl of lysis buffer was added to each of the wells and placed in the humidified 37° C. incubator with 10% CO2 for 30 minutes. At the end of the incubation period, the cells were collected in freezer plates and placed in a −80° C. freezer, until analysis. Changes in mRNA for Desmoglein 3 (DSG3) after treatment were analysed using Panomics Quantigene multiplex assay that employs branched DNA technology.
# procollagen 1 = details: human dermal fibroblasts, 5 μg/ml, 48 hours
# Method: Human dermal fibroblasts (Cascade Biologics) were cultured in 96-well tissue culture plates in growth medium (DMEM, 5% FBS, 1% L-Glut, and 1% antibiotics) and incubated for 24 hours at 37° C. […] Procollagen 1 levels were assayed using an ELISA kit from Takara (Procollagen Type-1 C-Peptide EIA Kit, Takara Bio Inc.) as per manufacturer's instructions.
# Dermatopontin = details: fibroblasts, 24 hours, p<0.05
# Method: Normal human dermal fibroblasts were cultured in 96 well tissue culture treated plates, containing appropriate culture medium. Cells were treated with 1-aroyl-N-(2-oxo-3-piperidinyl)-2-piperazine carboxamide test material, diluted in growth medium, for 24 hours in a humidified 37° C. incubator with 10% CO2. After incubation, growth medium from each plate was removed and 100 μl of lysis buffer was added to the wells and placed in 37° C. incubator with10% CO2 for 30 minutes. At the end of incubation, the cells were collected in freezer plates and placed in −80° C. freezer, until analysis. Changes in mRNA for Dermatopontin after treatment were analysed using Panomics Quantigene multiplex assay that employs a branched DNA technology.
substance,measurement,setting,value
1-aroyl-N-(2-oxo-3-piperidinyl)-2-piperazine carboxamide,increase in Desmoglein 1 expression,"Desmoglein 1; 0.00005% of the test material, 24 hours",did not show a statistically significant increase
same,increase in Desmoglein 1 expression,"Desmoglein 1; concentration of 0.0005%, after 24 hours, average of three samples, p<0.05",95%
same,increase in collagen synthesis compared to control,procollagen 1,75.4%
same,stimulation in mRNA levels for Dermatopontin,Dermatopontin; 0.00005%,43%
same,stimulation in mRNA levels for Dermatopontin,Dermatopontin; 0.0005%,62%
